Test results published in patent US20140227741A1, “Biological Systems for Production of Highest Quality Proteins” (Mediterranean Institute for Life Sciences, priority 2012, published 2014).

Key:
[1] = tested on: reactive oxygen species (ROS) level; test: Effect of 1 mM trolox on reactive oxygen species (ROS) level; format: cell-based, E. coli
Text: (§1) The functional defects of proteins, correlating with their oxidative damage (carbonylation), can be suppressed by antioxidants in proportion to the extent of the decrease in protein carbonylation. This is illustrated by the effects of trolox (6-hydroxy-2,5,7,8-tetramethylchroman-2-carboxylic acid) on the reduction of ROS species levels and PC levels as given in Table 2.

[2] = tested on: protein carbonylation (PC) amount; test: Effect of 1 mM trolox on protein carbonylation (PC) amount; format: cell-based, E. coli
Text: as §1
The procedure for the quantification of protein carbonylation by ELISA method is as follows. The steps of protein extraction are as described in Example 1 (steps 1 and 2). Protein […] concentration is determined and adjusted so that the proteins are loaded into ELISA wells at 10 μg/mL. Adsorbed proteins are derivatized by using 12 μg/mL DNPH. Derivatization of adsorbed proteins is followed by detection of derivatized dinitrophenol (DNP)-carbonyl by a rabbit anti-DNP primary antibody (Sigma, D9656) and goat anti-rabbit secondary antibody conjugated to HRP (Jackson ImmunoResearch, 111-035-14). Stocks of antibodies were prepared at ˜1 ug/uL and used at 1:7000 dilutions.

Q: For `Cc1c(C)c2c(c(C)c1O)CCC(C)(C(=O)O)O2` (stereo not drawn) [trolox, 6-hydroxy-2,5,7,8-tetramethylchroman-2-carboxylic acid], which ROS reduction ([1]; strain wt) is on record?
A: 0.41

Q: What about the ROS reduction ([1]; strain ΔdnaK) of the same compound?
A: 0.41

Q: And the ROS reduction ([1]; strain Δtig)?
A: 0.45

Q: What about the PC reduction ([2]; strain wt) of the same compound?
A: 0.26

Q: What about the PC reduction ([2]; strain ΔdnaK) of the same compound?
A: 0.25

Q: And the PC reduction ([2]; strain Δtig)?
A: 0.33
